The target of one assay is EGFR^L858R/T790M/C^797S (Homo sapiens, UniProt P00533, C797S/L858R/T790M). Nature of the assay: in vitro kinase assay (HTRF KinEASE-TK kit), LTC. Format: biochemical. To be noted: kinase inhibition. An excerpt:
(§1) Assays using an in vitro kinase assay kit (HTRF KinEASE-TK kit) can be used to study the inhibitory activity of compounds described herein with respect to EGFR mutants such as EGFR^L858R, EGFR^L58R/T790M, and EGFR^L858R/T790M/C^797S.

Assay [1] deals with Ba/F3 EGFR-Del19/T790M/C797S (Homo sapiens, UniProt P00533, T790M/C797S, cells depend on it, form not given). Nature of the assay: Ba/F3 viability assay (CellTiter-Glo), DTC. The assay is classed as cell-based. To be noted: anti-proliferation, read-out: BaF3 DTC IC50. In a few lines:
(§2)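 Read-out: viability signal, used as the measure of proliferation inhibition by test compounds.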

The target in the next assay is Ba/F3 EGFR-Del19/T790M (Homo sapiens, UniProt P00533, T790M, cells depend on it, form not given). Put plainly: Ba/F3 viability assay (CellTiter-Glo), DT. The assay is classed as cell-based. To be noted: anti-proliferation, read-out: BaF3 DT IC50. The essentials: as §2
The target in the next assay is EGFR^L858R (Homo sapiens, UniProt P00533, L858R). Put plainly: in vitro kinase assay (HTRF KinEASE-TK kit), L. Format: biochemical. To be noted: kinase inhibition.
Text: as §1

Another assay deals with EGFR^L58R/T790M (Homo sapiens, UniProt P00533, L858R/T790M). Nature of the assay: in vitro kinase assay (HTRF KinEASE-TK kit), LT. Format: biochemical. As to conditions: kinase inhibition.
Text: as §1

In the next assay the test system is Ba/F3 Parental. Nature of the assay: Ba/F3 viability assay (CellTiter-Glo), parental. Format: cell-based. In a few lines: as §2
For another assay, the target named is Ba/F3 EGFR-Del19/C797S (Homo sapiens, UniProt P00533, C797S, cells depend on it, form not given). Put plainly: Ba/F3 viability assay (CellTiter-Glo), DC. The assay is classed as cell-based. As to conditions: anti-proliferation, read-out: BaF3 DC IC50. The essentials: as §2
[2] abbreviates: Mus musculus, BaF3, anti-proliferation.

Read-outs that look alike come from different tables or passages of the source. Where only a bound is given, the exact number is not on record here.

Chain of Ba/F3 EGFR-Del19/C797S (P00533 with tags, fused parts or gaps DEL746-750/C797S, form open): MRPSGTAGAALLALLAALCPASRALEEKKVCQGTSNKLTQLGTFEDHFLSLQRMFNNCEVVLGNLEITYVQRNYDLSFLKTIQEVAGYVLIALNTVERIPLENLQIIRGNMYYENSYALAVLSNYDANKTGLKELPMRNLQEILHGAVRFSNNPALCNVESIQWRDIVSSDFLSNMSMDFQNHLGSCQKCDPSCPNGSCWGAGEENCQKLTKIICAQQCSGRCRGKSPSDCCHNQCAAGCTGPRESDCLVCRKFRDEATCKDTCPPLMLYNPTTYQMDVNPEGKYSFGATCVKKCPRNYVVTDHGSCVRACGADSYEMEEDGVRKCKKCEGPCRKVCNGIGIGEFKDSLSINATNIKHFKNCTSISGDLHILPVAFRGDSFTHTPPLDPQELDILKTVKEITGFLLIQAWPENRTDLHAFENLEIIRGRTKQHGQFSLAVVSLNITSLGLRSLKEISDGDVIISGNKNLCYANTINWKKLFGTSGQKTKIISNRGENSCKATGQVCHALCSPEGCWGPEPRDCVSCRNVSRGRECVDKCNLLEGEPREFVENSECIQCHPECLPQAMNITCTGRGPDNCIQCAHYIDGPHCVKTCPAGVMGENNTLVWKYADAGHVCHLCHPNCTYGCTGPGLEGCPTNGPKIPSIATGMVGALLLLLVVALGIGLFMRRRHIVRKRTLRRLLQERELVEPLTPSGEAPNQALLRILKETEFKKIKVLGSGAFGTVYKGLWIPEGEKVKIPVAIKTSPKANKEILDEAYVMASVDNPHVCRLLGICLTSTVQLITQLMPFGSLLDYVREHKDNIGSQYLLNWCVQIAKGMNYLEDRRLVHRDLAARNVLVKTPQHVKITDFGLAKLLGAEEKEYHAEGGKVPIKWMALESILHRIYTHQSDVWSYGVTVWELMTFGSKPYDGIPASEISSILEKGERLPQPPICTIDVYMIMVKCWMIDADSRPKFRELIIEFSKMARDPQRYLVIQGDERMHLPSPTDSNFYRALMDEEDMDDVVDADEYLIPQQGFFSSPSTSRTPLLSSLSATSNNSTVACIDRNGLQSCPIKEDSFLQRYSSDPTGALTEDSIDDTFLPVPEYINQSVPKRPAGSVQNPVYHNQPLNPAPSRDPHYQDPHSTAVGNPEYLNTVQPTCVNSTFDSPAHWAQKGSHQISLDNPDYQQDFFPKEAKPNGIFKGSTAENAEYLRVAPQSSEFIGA
Chain of EGFR^L858R/T790M/C^797S (P00533 25-1210 T790M/C797S/L858R): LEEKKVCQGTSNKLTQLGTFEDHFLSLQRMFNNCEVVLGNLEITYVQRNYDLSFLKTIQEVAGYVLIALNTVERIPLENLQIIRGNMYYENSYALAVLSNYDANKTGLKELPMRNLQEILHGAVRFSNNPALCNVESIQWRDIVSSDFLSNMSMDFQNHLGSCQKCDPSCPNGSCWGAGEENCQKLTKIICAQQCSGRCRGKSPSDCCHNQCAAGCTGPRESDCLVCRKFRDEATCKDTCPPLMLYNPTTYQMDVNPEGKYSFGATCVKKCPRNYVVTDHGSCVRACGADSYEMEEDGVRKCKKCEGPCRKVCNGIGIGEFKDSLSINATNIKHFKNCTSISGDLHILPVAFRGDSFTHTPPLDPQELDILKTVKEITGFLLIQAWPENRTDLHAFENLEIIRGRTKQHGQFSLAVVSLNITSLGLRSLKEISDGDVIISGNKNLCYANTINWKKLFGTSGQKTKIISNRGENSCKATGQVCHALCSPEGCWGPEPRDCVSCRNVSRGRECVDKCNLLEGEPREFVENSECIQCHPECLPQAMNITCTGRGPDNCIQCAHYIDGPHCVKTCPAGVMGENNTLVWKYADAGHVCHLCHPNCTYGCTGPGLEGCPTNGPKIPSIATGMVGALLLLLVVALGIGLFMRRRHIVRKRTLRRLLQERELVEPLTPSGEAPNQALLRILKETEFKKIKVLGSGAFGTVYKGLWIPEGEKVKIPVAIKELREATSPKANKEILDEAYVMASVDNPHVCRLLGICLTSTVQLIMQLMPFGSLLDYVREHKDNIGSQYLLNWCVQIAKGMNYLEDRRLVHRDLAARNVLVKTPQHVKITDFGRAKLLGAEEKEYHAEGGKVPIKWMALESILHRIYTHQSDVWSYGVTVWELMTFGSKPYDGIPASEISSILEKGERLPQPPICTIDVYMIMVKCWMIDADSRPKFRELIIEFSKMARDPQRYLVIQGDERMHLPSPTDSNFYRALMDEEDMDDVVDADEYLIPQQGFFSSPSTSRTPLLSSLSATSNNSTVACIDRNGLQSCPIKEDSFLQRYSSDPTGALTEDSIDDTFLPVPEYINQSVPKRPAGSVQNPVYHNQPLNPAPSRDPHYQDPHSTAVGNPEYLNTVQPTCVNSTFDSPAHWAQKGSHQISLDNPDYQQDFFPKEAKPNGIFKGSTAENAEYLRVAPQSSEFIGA
Chain of EGFR^L58R/T790M (P00533 25-1210 T790M/L858R): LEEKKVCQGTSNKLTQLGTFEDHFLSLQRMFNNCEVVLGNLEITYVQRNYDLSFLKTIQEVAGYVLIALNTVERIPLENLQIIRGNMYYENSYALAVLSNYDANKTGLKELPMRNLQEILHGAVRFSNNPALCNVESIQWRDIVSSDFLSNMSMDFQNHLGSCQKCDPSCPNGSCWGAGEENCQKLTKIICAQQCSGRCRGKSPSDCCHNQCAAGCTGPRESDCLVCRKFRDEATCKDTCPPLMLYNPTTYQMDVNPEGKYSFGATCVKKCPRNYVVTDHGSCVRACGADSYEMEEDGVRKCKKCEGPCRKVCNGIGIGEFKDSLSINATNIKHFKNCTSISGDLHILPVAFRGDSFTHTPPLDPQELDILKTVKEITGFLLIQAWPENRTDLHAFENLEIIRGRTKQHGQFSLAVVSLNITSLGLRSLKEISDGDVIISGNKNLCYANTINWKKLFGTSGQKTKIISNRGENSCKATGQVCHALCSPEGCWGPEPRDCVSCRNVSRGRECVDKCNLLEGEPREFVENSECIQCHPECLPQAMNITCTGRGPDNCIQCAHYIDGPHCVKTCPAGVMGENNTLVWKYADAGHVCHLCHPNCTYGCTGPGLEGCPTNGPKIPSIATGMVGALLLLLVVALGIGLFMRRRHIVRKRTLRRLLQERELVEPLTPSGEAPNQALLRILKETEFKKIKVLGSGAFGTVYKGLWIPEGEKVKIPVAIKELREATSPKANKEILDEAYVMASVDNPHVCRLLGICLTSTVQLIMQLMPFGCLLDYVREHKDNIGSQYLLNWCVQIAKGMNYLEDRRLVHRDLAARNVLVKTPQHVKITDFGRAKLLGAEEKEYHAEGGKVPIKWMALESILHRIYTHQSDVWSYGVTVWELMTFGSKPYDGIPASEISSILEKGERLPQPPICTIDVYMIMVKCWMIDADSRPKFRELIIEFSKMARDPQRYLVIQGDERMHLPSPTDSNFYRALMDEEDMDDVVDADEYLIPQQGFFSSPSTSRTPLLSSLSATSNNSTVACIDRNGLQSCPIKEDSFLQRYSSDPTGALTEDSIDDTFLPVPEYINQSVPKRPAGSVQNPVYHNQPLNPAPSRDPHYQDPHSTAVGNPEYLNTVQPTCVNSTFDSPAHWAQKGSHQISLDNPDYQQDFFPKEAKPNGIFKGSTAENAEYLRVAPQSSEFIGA
Chain of Ba/F3 EGFR-Del19/T790M (P00533 with tags, fused parts or gaps DEL746-750/T790M, form open): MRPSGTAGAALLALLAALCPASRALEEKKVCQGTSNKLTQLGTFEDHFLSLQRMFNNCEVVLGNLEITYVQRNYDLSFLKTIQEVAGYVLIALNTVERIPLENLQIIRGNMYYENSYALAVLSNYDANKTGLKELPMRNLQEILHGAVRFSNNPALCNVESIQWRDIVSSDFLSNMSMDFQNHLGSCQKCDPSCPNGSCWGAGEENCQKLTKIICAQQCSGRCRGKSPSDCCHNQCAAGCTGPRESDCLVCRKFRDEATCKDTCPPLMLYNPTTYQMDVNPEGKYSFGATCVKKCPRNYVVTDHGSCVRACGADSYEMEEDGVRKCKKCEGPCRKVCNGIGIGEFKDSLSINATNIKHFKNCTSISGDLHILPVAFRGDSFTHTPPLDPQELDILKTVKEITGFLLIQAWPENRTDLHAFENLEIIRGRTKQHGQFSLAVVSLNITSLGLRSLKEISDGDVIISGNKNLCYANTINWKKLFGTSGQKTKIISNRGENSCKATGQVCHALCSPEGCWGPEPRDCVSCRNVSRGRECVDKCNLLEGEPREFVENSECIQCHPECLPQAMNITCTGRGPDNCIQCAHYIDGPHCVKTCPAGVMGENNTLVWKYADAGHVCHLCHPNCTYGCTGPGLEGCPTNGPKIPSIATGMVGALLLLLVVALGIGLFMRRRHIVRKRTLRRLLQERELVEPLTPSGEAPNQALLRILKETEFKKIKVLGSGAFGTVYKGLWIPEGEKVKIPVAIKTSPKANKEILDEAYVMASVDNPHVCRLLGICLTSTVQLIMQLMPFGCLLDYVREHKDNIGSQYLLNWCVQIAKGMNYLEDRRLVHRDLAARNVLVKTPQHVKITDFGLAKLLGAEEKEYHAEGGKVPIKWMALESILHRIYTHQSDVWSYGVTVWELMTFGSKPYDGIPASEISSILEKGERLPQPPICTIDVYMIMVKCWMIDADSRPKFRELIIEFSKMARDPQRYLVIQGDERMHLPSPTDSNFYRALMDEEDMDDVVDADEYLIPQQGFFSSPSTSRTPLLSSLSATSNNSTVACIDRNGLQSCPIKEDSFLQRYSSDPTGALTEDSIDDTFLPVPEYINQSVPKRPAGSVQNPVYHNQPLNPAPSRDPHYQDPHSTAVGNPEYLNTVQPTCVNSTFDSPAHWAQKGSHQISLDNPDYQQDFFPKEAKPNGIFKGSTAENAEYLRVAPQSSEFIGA

In the case of `Cc1nc(-c2nn3c4cc(ncc24)Nc2ccnc(n2)-c2cnn(C)c2OCC[C@@H]3C)sc1CN(C)C` [(171)], the IC50 is less than 10 nM against EGFR^L858R/T790M/C^797S, less than 10 nM at EGFR^L858R, less than 10 nM on EGFR^L58R/T790M and 100 to 1000 nM in the assay on Ba/F3 Parental (setting [2]). The GI50 (in assay [1]; on Ba/F3 EGFR-Del19/T790M; on Ba/F3 EGFR-Del19/C797S) was 10 to 100 nM each time.

In the case of `C[C@H]1CCOc2c(cnn2C)-c2nccc(n2)Nc2cc3c(cn2)c(-c2ccc(CN4CCN(C)CC4)cc2)nn31` [(172)], the concentration for half-maximal inhibition (IC50) against EGFR^L858R/T790M/C^797S was less than 10 nM; against EGFR^L858R, less than 10 nM; against EGFR^L58R/T790M, less than 10 nM; with Ba/F3 Parental (setting [2]), 10 to 100 nM. The GI50 (in assay [1]; on Ba/F3 EGFR-Del19/T790M; on Ba/F3 EGFR-Del19/C797S) was less than 10 nM each time.

For the compound `C[C@H]1CCOc2c(cnn2C)-c2nccc(n2)Nc2cc3c(cn2)c(-c2cccc(N4CCC(N5CCN(C)CC5)CC4)c2)nn31` [(173)], the IC50 on EGFR^L858R/T790M/C^797S is less than 10 nM; at EGFR^L858R it was less than 10 nM; against EGFR^L58R/T790M, less than 10 nM; in the assay with Ba/F3 Parental (setting [2]), 100 to 1000 nM. Also, the GI50 (in assay [1]; on Ba/F3 EGFR-Del19/T790M; at Ba/F3 EGFR-Del19/C797S) was less than 10 nM throughout.

With `Cc1nc(-c2nn3c4cc(ncc24)Nc2ccnc(n2)-c2cnn(C)c2OCC[C@@H]3C)sc1CN1CCOCC1` [(174)], the 50% inhibitory concentration (IC50) on EGFR^L858R/T790M/C^797S was less than 10 nM; on EGFR^L858R, less than 10 nM; at EGFR^L58R/T790M, less than 10 nM; in the assay on Ba/F3 Parental (setting [2]) it was 100 to 1000 nM. For the same compound, the GI50 (in assay [1]; on Ba/F3 EGFR-Del19/T790M; on Ba/F3 EGFR-Del19/C797S) was less than 10 nM throughout.

For `C[C@H]1CCOc2c(cnn2C)-c2nccc(n2)Nc2cc3c(cn2)c(N2CC[C@@H](CN(C)CCF)C2)nn31` [(175)], the IC50 on EGFR^L858R/T790M/C^797S is less than 10 nM; at EGFR^L858R, less than 10 nM; on EGFR^L58R/T790M, less than 10 nM; in the assay on Ba/F3 Parental (setting [2]), 10 to 100 nM. The GI50 (in assay [1]; at Ba/F3 EGFR-Del19/T790M; on Ba/F3 EGFR-Del19/C797S) was less than 10 nM in each case.

Regarding `C[C@H]1CCOc2c(cnn2C)-c2nccc(n2)Nc2cc3c(cn2)c(-c2ccc(CN(C)C)cc2)nn31` [(176)], the IC50 at EGFR^L858R/T790M/C^797S was less than 10 nM; against EGFR^L858R, less than 10 nM; against EGFR^L58R/T790M, less than 10 nM; in the assay with Ba/F3 Parental (setting [2]) it was 100 to 1000 nM. Besides, the GI50 in assay [1] was less than 10 nM; at Ba/F3 EGFR-Del19/T790M, less than 10 nM; at Ba/F3 EGFR-Del19/C797S, 10 to 100 nM.

On to `C[C@H]1CCOc2c(cnn2C)-c2nccc(n2)Nc2cc3c(cn2)c(-c2cccc(CN4CCOCC4)c2)nn31` [(177)], for which the 50% inhibitory concentration (IC50) was less than 10 nM on EGFR^L858R/T790M/C^797S, 10 to 100 nM on EGFR^L858R, less than 10 nM on EGFR^L58R/T790M and 100 to 1000 nM in the assay on Ba/F3 Parental (setting [2]). Besides, the GI50 was less than 10 nM in assay [1], 10 to 100 nM on Ba/F3 EGFR-Del19/T790M and 10 to 100 nM at Ba/F3 EGFR-Del19/C797S.

With `C[C@H]1CCOc2c(cnn2C)-c2nccc(n2)Nc2cc3c(cn2)c(N2CC[C@H](N(C)C)C2)nn31` [(178)], the IC50 at EGFR^L858R/T790M/C^797S was less than 10 nM; against EGFR^L858R, 10 to 100 nM; at EGFR^L58R/T790M, less than 10 nM; in the assay on Ba/F3 Parental (setting [2]) it was 100 to 1000 nM. In addition, the figures for the GI50 (in assay [1]; at Ba/F3 EGFR-Del19/T790M; on Ba/F3 EGFR-Del19/C797S) were less than 10 nM, 10 to 100 nM and 10 to 100 nM, respectively.

Take `C[C@H]1CCOc2c(cnn2C)-c2nccc(n2)Nc2cc3c(cn2)c(N2CC[C@@H](N(C)CCF)C2)nn31` [(179)]: the IC50 was less than 10 nM on EGFR^L858R/T790M/C^797S, less than 10 nM on EGFR^L858R, less than 10 nM on EGFR^L58R/T790M and 100 to 1000 nM with Ba/F3 Parental (setting [2]). Further, the GI50 in assay [1] is less than 10 nM; on Ba/F3 EGFR-Del19/T790M it was less than 10 nM; on Ba/F3 EGFR-Del19/C797S, 10 to 100 nM.

`C[C@H]1CCOc2c(cnn2C)-c2nccc(n2)Nc2cc3c(cn2)c(N2CC[C@H](N(C)CCCF)C2)nn31` [(180)]: the IC50 on EGFR^L858R/T790M/C^797S was less than 10 nM; against EGFR^L858R, 10 to 100 nM; against EGFR^L58R/T790M, less than 10 nM; with Ba/F3 Parental (setting [2]), 100 to 1000 nM. In addition, the GI50 in assay [1] is less than 10 nM; at Ba/F3 EGFR-Del19/T790M it was 10 to 100 nM; at Ba/F3 EGFR-Del19/C797S it was 10 to 100 nM.

As for `C[C@H]1CCOc2c(cnn2C)-c2nccc(n2)Nc2cc3c(cn2)c(N2CC[C@@H](N(C)C)C2)nn31` [(181)], the IC50 on EGFR^L858R/T790M/C^797S is less than 10 nM; on EGFR^L858R, less than 10 nM; on EGFR^L58R/T790M, less than 10 nM; with Ba/F3 Parental (anti-proliferation, read-out: BaF3 parental IC50), 100 to 1000 nM. Also, the GI50 (in assay [1]; on Ba/F3 EGFR-Del19/T790M; at Ba/F3 EGFR-Del19/C797S) was 10 to 100 nM throughout.

`C[C@H]1CCOc2c(cnn2C)-c2nccc(n2)Nc2cc3c(cn2)c(-c2cccc(CN(C)C)n2)nn31` [(182)]: the 50% inhibitory concentration (IC50) on EGFR^L858R/T790M/C^797S was less than 10 nM; against EGFR^L858R, 10 to 100 nM; at EGFR^L58R/T790M it was less than 10 nM; with Ba/F3 Parental (setting [2]) it was 100 to 1000 nM. Moreover, the GI50 in assay [1] is less than 10 nM; at Ba/F3 EGFR-Del19/T790M, 10 to 100 nM; at Ba/F3 EGFR-Del19/C797S it was 10 to 100 nM.

These data come from US20230148005A1, “MACROCYCLIC COMPOUNDS AND USES THEREOF” (THESEUS PHARMACEUTICALS, INC., priority 2020, published 2023).
